Assay results: patent US7534780B2, “Estradiol prodrugs” (Bayer Schering Pharma Aktiengesellschaft, priority 2004, dated 2009)
Blank lines part the entries; values can stand above or below the molecule they belong to.

Key:
erythrocytes [1] = assay: Displacement of estradiol-3-sulfamate from the erythrocyte bond (relative binding affinity); set-up: species or system human; conditions: for RBA to Erythrocytes: human blood, displacement of 14C-labeled estradiol sulfamate; for bond to erythrocytes (in words): m-substituted versus p-substituted compounds
Description: The SO2—NTH2 group of the substances according to the invention can result in a concentration in erythrocytes by binding to carboanhydrases. The displacement of estradiol-3-sulfamate from the erythrocyte bond by test substances is measured.
Test preparation: Human blood is mixed with a mixture that consists of ^14C-labeled and unlabeled estradiol sulfamate. The erythrocytes are saturated at the selected working point, and the distribution in plasma/erythrocytes is 40:60. A second blood sample is mixed with a mixture that consists of ^14C-labeled estradiol sulfamate and unlabeled test substance. The relative binding affinity is calculated from the proportion of ^14C-labeled estradiol sulfamate in plasma: higher proportion=strong displacement of ^14C-estradiol sulfamate from the erythrocytes by the test substance=high binding affinity of the test substances to the erythrocytes.

erythrocytes [2] = assay: Determination of the erythrocyte/plasma ratio of the substance; format: in vitro ADME; conditions: fresh blood; tracer use for compound 1 or 9, otherwise non-radioactive
Description: Determination of the substance concentration in the erythrocyte/plasma ratio (tracer use):
Fresh blood is incubated with a defined amount of tracer compound of compound 1 or 9. After the erythrocytes are separated, the measured radioactivity in the erythrocytes is put into a ratio with the measured radioactivity in the plasma.
Determination of the erythrocyte/plasma ratio (non-radioactive):
Freshly-obtained, heparinized blood is mixed with a defined amount of test substance. The concentration in the plasma obtained therefrom is measured. The erythrocyte/plasma ratio is calculated from the measured concentration of the total substance in the plasma and the concentration that is used.

Human Carboanhydrase I = Human Carboanhydrase I (Homo sapiens, UniProt P00915); assay: Inhibition of carboanhydrase I (CO2 hydration); format: biochemical; conditions: read-out: CAI IC50
Human Carboanhydrase I, sequence (P00915 whole entry): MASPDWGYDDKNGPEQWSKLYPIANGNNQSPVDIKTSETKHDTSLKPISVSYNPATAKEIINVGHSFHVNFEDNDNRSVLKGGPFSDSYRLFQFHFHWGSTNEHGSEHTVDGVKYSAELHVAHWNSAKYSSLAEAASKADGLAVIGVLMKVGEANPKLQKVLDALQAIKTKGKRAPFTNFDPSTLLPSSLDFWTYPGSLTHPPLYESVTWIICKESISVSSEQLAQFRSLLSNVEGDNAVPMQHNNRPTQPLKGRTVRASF
Description: Test preparation: A constant CO2 stream is directed by a buffer that was mixed with carboanhydrase I. The time that is required to reduce the pH within defined limits is a measuring parameter. This parameter reflects the formation of H2CO3 in the medium. IC50 inhibiting values are determined by test substances being pipetted into the test preparation.

ovariectomized rats = assay: Induction of uterus growth in ovariectomized rats, oral treatment days 1-3; format: in vivo, rat; conditions: oral administration
Description: (§1) Adult Wistar rats were ovariectomized 14 days after this operation for the study of the substances according to the invention. A treatment extended over 3 days (days 1-3); on day 4 after the animals were sacrificed, the recovery of plasma for hormone-analytical and clinical-chemical determinations and the determination of uterus weights were carried out. In satellite tests, correspondingly conditioned animals were sacrificed and samples were taken of their blood after one-time treatment and at other times (see Table 1 for determining estradiol and estrone in the plasma).
In FIG. 1, the induction of uterus growth in ovariectomized rats is depicted. The treatment is carried out orally from day 1 to the 3rd day, and then the autopsy is carried out on the 4th day. A maximum uterus growth predominantly at 30 μg/animal/day is shown.

angiotensinogen = assay: Liver estrogeneity (marker angiotensinogen) in ovariectomized rats; format: in vivo, rat; conditions: oral administration
Description: as §1

[3] = Estradiol (E2) and estrone (E1) levels in plasma of rats after one-time oral administration; format: in vivo, rat
Description: as §1

SMILES: C[C@]12CC[C@@H]3c4ccc(O)cc4CC[C@H]3[C@@H]1CC[C@@H]2OC(=O)c1cc(S(N)(=O)=O)c(Cl)cc1Cl [Compound 7, 3-Hydroxyestra-1,3,5(10)-trien-17β-yl 2′,4′-dichloro-5′-sulfamoylbenzoate]
RBA to Erythrocytes (erythrocytes [1]): 0.40 | bond to erythrocytes (in words) (erythrocytes [1]): weaker bonds | Distribution Ratio of the Substance to Erythrocytes/Plasma (erythrocytes [2]): 5 | IC50 (Human Carboanhydrase I): 500 nM

SMILES: C[C@]12CC[C@@H]3c4ccc(O)cc4CC[C@H]3[C@@H]1CC[C@@H]2OC(=O)c1ccc(S(N)(=O)=O)cc1 [Compound 1, 3-Hydroxyestra-1,3,5(10)-trien-17β-yl 4′-sulfamoylbenzoate]
RBA to Erythrocytes (erythrocytes [1]): 32 | bond to erythrocytes (in words) (erythrocytes [1]): very strong bond | Distribution Ratio of the Substance to Erythrocytes/Plasma (erythrocytes [2]): 7.7 | IC50 (Human Carboanhydrase I): 190 nM | estrogenic activity in the uterus / uterus growth (in words) (ovariectomized rats): superior action on the uterus growth | hepatic estrogenic action, marker angiotensinogen (in words) (angiotensinogen): much lesser action on estrogen-modulated liver functions

SMILES: C[C@]12CC[C@@H]3c4ccc(O)cc4CC[C@H]3[C@@H]1CC[C@@H]2OC(=O)c1cccc(S(N)(=O)=O)c1 [Compound 9, 3-Hydroxyestra-1,3,5(10)-trien-17β-yl 3′-sulfamoylbenzoate]
oral availability and estrogeneity compared with the p-substituted compound (in words) [3]: higher oral availability and estrogeneity | increase of mother estrogen (estradiol) on oral administration (in words) ([3]; rats): very strong increase | RBA to Erythrocytes (erythrocytes [1]): 0.18 | bond to erythrocytes (in words) (erythrocytes [1]): weaker bonds | Distribution Ratio of the Substance to Erythrocytes/Plasma (erythrocytes [2]): 4 | IC50 (Human Carboanhydrase I): 380 nM | estrogenic activity in the uterus / uterus growth (in words) (ovariectomized rats): enhanced in comparison to estradiol

hepatic estrogenic action, marker angiotensinogen (in words) (angiotensinogen): significant increase in angiotensinogen
SMILES: C#C[C@]1(O)CC[C@H]2[C@@H]3CCc4cc(O)ccc4[C@H]3CC[C@@]21C [ethinyl estradiol, 17α-ethinyl estradiol, reference compound]

SMILES: C[C@]12CC[C@@H]3c4ccc(OS(N)(=O)=O)cc4CC[C@H]3[C@@H]1CC[C@@H]2O [Estradiol-3-sulfamate, reference compound]
RBA to Erythrocytes (erythrocytes [1]): 100 | Distribution Ratio of the Substance to Erythrocytes/Plasma (erythrocytes [2]): 49 | IC50 (Human Carboanhydrase I): 157 ± 10.6 nM
